Data published in patent publication US4742049A, “Semisynthetic erythromycin antibiotics” (Abbott Laboratories, priority 1986, dated 1988).
≈ marks a conversion by molar mass, not a printed value. Where “and” joins values, the source holds several entries; their conditions need not be identical. Identical values can stand only once. Like-named read-outs stand apart in the source and are kept apart here.

Assays:
[1] = test system: Providencia stuartii; assay: antimicrobial spectrum, agar dilution MIC; type: cell-based; conditions: strain CMX 640, BHI agar, 20-24 hours
Procedure: (§1) Twelve petri dishes containing successive aqueous dilutions of the test compound mixed with 10 ml of sterilized Brain Heart Infusion agar (Difco 0418-01-5) are prepared. Each plate is inoculated with 1:100 (or 1:10 for slow-growing strains, primarily Micrococcus and Streptococcus) dilutions of up to 32 different microorganisms, using a Steers replicator block. The inoculated plates are incubated at 35°-37° C. for 20-24 hours. In addition, a control plate, using BHI agar containing no test compound, is prepared and incubated at the beginning and end of each test.
(§2) An additional plate containing a compound having known susceptibility patterns for the organisms being tested and belonging to the same antibiotic class as the test compound is also prepared and incubated as a further control, as well as to provide test-to-test comparability.
(§3) After incubation, each disk is read. The MIC is defined as the lowest concentration of drug yielding no growth, a slight haze, or sparsely isolated colonies on the inoculum spot as compared to the growth control.

[2] = test system: Pseudomonas aeruginosa; assay: antimicrobial spectrum, agar dilution MIC; type: cell-based; conditions: BHI agar, 20-24 hours
Procedure: as §1, §2, §3

[3] = test system: Staph. aureus; assay: antimicrobial spectrum, agar dilution MIC; type: cell-based; conditions: Staphylococcus aureus, BHI agar, 20-24 hours
Procedure: as §1, §2, §3

[4] = test system: Staph. epidermidis; assay: antimicrobial spectrum, agar dilution MIC; type: cell-based; conditions: Staphylococcus epidermidis, BHI agar, 20-24 hours
Procedure: as §1, §2, §3

[5] = test system: Strep. agalactiae; assay: antimicrobial spectrum, agar dilution MIC; type: cell-based; conditions: Streptococcus agalactiae; strain CMX 633; BHI agar, 20-24 hours; read-out: MIC
Procedure: as §1, §2, §3

[6] = test system: Strep. bovis; assay: antimicrobial spectrum, agar dilution MIC; type: cell-based; conditions: Streptococcus equinus, strain A5169; BHI agar, 20-24 hours; read-out: MIC
Procedure: as §1, §2, §3

[7] = test system: Strep. faecalis; assay: antimicrobial spectrum, agar dilution MIC; type: cell-based; conditions: Enterococcus faecalis, BHI agar, 20-24 hours
Procedure: as §1, §2, §3

[8] = test system: Strep. faecium; assay: antimicrobial spectrum, agar dilution MIC; type: cell-based; conditions: Enterococcus faecium, BHI agar, 20-24 hours
Procedure: as §1, §2, §3

[9] = test system: Strep. pneumoniae; assay: antimicrobial spectrum, agar dilution MIC; type: cell-based; conditions: Streptococcus pneumoniae, BHI agar, 20-24 hours
Procedure: as §1, §2, §3

[10] = test system: Strep. pyogenes; assay: antimicrobial spectrum, agar dilution MIC; type: cell-based; conditions: BHI agar, 20-24 hours
Procedure: as §1, §2, §3

[11] = test system: Micrococcus luteus; assay: antimicrobial spectrum, agar dilution MIC; type: cell-based; conditions: strain 4698, BHI agar, 20-24 hours
[12] = test system: Ent. aerogenes; assay: antimicrobial spectrum, agar dilution MIC; type: cell-based
[13] = test system: Klebsiella pneumoniae; assay: antimicrobial spectrum, agar dilution MIC; type: cell-based; conditions: strain 8045, BHI agar, 20-24 hours
[14] = test system: Pseudomonas cepacia; assay: antimicrobial spectrum, agar dilution MIC; type: cell-based; conditions: strain 2961, BHI agar, 20-24 hours
Procedure: Erythromycin A was used for this purpose.
After incubation, each disk is read.

[15] = test system: Staph. saprophyticus; assay: microbe, parasite or virus in culture; conditions: Staphylococcus saprophyticus, ATCC15305
Procedure: as §1, §2, §3

[16] = test system: Staph. aureus NCTC 10649; assay: acute mouse protection test; conditions: for ED50: Staphylococcus aureus, NCTC10649, in Mus musculus, 168 h, dosed 1 and 5 hours post-infection, observed 7 days; for # Died: ten mice
Procedure: The acute mouse protection test is conducted on ten mice with each of three levels of drug.
The acute mouse protection test is conducted on female, Swiss albino mice, 18-20 grams in weight. The mice are injected intraperitoneally with an 18-hour culture of the indicated test organism diluted sufficiently to provide the desired LD50 value. To check the potency of the inoculum, a titration of the indicated test organism is carried out in control animals. […] The ED50 values are calculated using the mortality data collected.

In the case of `CC[C@H]1OC(=O)[C@H](C)[C@@H](O[C@H]2C[C@@](C)(OC)[C@@H](O)[C@H](C)O2)[C@H](C)[C@@H](O[C@@H]2O[C@H](C)C[C@H](N(C)C)[C@H]2O)[C@](C)(O)C[C@@H](C)C(=O)[C@H](C)[C@@H](O)[C@]1(C)O` [Erythromycin A], the MIC [1] is reported as > 100 µg/mL, the MIC ([1]; read-out: MIC) is reported as > 200 µg/mL and the MIC ([2]; Pseudomonas aeruginosa, strain 5007) is reported as 200 µg/mL (≈ 273 µM). It also gave an MIC ([2]; Pseudomonas aeruginosa, strain BMH10) of 100 µg/mL (≈ 136 µM), an MIC ([2]; Pseudomonas aeruginosa, strain K799/61) of 1.56 µg/mL (≈ 2.13 µM) and an MIC ([2]; Pseudomonas aeruginosa, strain K799/WT) of 200 µg/mL (≈ 273 µM). The MIC ([2]; strain 5007) was > 100 µg/mL, the MIC ([2]; strain K799/WT) was > 100 µg/mL and 100 µg/mL and the MIC ([3]; ATCC6538P, strain ATCC 6538P, read-out: MIC) was 0.12 µg/mL (≈ 0.164 µM). The MIC ([3]; ATCC25923, strain ATCC 25923, read-out: MIC) was 0.06 µg/mL (≈ 0.0818 µM), the MIC ([3]; NCTC10649, strain NCTC 10649, read-out: MIC) was 0.06 µg/mL (≈ 0.0818 µM) and the MIC ([3]; strain 45 RAR 2) was 0.2 µg/mL (≈ 0.273 µM). For the same molecule, the MIC ([3]; strain 642A, read-out: MIC) was 0.12 µg/mL (≈ 0.164 µM), the MIC ([3]; strain A5177, read-out: MIC) was 0.78 µg/mL (≈ 1.06 µM) and the MIC ([3]; strain CMX 686B, read-out: MIC) was 0.12 µg/mL (≈ 0.164 µM). It also gave an MIC ([3]; strain CMX 705, read-out: MIC) of 0.06 µg/mL (≈ 0.0818 µM), an MIC ([3]; strain CMX 730A, read-out: MIC) of 0.06 µg/mL (≈ 0.0818 µM) and an MIC ([3]; strain CMX 739A, read-out: MIC) of 0.06 µg/mL (≈ 0.0818 µM). The MIC ([3]; strain GYR 1150, read-out: MIC) was 0.06 µg/mL (≈ 0.0818 µM), the MIC ([3]; strain GYR 1162, read-out: MIC) was 0.06 µg/mL (≈ 0.0818 µM) and the MIC ([4]; strain 3519, read-out: MIC) was 0.21 µg/mL (≈ 0.286 µM). The MIC ([4]; strain 3519 RARI) was 0.2 µg/mL (≈ 0.273 µM), the MIC ([4]; strain CMX 728, read-out: MIC) was 0.06 µg/mL (≈ 0.0818 µM) and the MIC ([4]; strain GYR 1151, read-out: MIC) was 0.12 µg/mL (≈ 0.164 µM). The MIC [5] was 0.015 µg/mL (≈ 0.0204 µM), the MIC [6] was 0.01 µg/mL (≈ 0.0136 µM) and the MIC ([7]; strain CMX 663F) was 2 µg/mL (≈ 2.73 µM). For the same molecule, the MIC ([7]; strain CMX 729G) was 0.5 µg/mL (≈ 0.681 µM), the MIC ([7]; strain CMX 736F) was 0.5 µg/mL (≈ 0.681 µM) and the MIC ([7]; strain GYR 1164) was 0.5 µg/mL (≈ 0.681 µM). It also gave an MIC ([7]; strain GYR 1166) of 0.5 µg/mL (≈ 0.681 µM), an MIC ([7]; strain GYR 1167) of 4 µg/mL (≈ 5.45 µM) and an MIC ([8]; ATCC8043, strain ATCC 8043) of 0.1 µg/mL (≈ 0.136 µM). The MIC ([8]; ATCC8043, strain ATCC 8043, read-out: MIC) was 0.06 µg/mL (≈ 0.0818 µM), the MIC ([9]; strain 78-008107) was 32 µg/mL (≈ 43.6 µM) and the MIC ([9]; strain CMX 635, read-out: MIC) was 0.015 µg/mL (≈ 0.0204 µM). The MIC ([9]; strain CMX 698, read-out: MIC) was 0.008 µg/mL (≈ 0.0109 µM), the MIC ([10]; Streptococcus pyogenes, strain 930, read-out: MIC) was > 200 µg/mL and the MIC ([10]; Streptococcus pyogenes, strain C203, read-out: MIC) was 0.002 µg/mL (≈ 0.00273 µM). The MIC ([10]; Streptococcus pyogenes, strain EES61, read-out: MIC) was 0.06 µg/mL (≈ 0.0818 µM), the MIC ([10]; Streptococcus pyogenes, strain M79061-98) was 1 µg/mL (≈ 1.36 µM) and the MIC ([10]; Streptococcus pyogenes, strain M79061-139, read-out: MIC) was 0.015 µg/mL (≈ 0.0204 µM). For the same molecule, the MIC ([10]; Streptococcus pyogenes, strain M79061-140, read-out: MIC) was 0.008 µg/mL (≈ 0.0109 µM), the MIC ([10]; strain 930) was > 100 µg/mL and the MIC [11] was 0.1 µg/mL (≈ 0.136 µM). The MIC ([12]; Klebsiella aerogenes, ATCC10348) was 100 µg/mL (≈ 136 µM), the MIC ([12]; Klebsiella aerogenes, ATCC13048, strain ATCC 13048, BHI agar, 20-24 hours, read-out: MIC) was 50 µg/mL (≈ 68.1 µM) and the MIC ([12]; strain ATCC 10348, BHI agar, 20-24 hours) was 50 µg/mL (≈ 68.1 µM). For the same molecule, the MIC [13] was 50 µg/mL (≈ 68.1 µM), the MIC ([14]; Burkholderia cepacia, read-out: MIC) was 200 µg/mL (≈ 273 µM) and the MIC [14] was > 100 µg/mL. For the same molecule, the MIC [15] was 0.03 µg/mL (≈ 0.0409 µM), the ED50 ([16]; po, dosage medium Carboxymethylcellulose) was 48.8 mg/kg and the ED50 ([16]; po, dosage medium PBS) was 75.7 mg/kg. The ED50 ([16]; sc, subcutaneous, dosage medium Injectable solution) was 10.9 mg/kg, the “# Died” value ([16]; oral, Carboxymethylcellulose, 15.6 mg/kg) was 8 and the “# Died” value ([16]; oral, Carboxymethylcellulose, 37.5 mg/kg) was 5. The “# Died” value ([16]; oral, Carboxymethylcellulose, 250.0 mg/kg) was 0, the “# Died” value ([16]; oral, PBS, 15.6 mg/kg) was 10 and the “# Died” value ([16]; oral, PBS, 37.5 mg/kg) was 4. For the same molecule, the “# Died” value ([16]; oral, PBS, 250.0 mg/kg) was 0, the “# Died” value ([16]; subcutaneous, Injectable solution, 2.5 mg/kg) was 10 and the “# Died” value ([16]; subcutaneous, Injectable solution, 10.0 mg/kg) was 6. The “# Died” value ([16]; subcutaneous, Injectable solution, 40.0 mg/kg) was 0.
